# Data published in ChEMBL document CHEMBL1201862, “PubChem BioAssay data set” (2004).
#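 Following 48 hours of exposure in 96-well plates, responses at five concentrations were used to interpolate endpoints linearly. GI50 is the concentration that inhibits growth by half.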 Calls of active or inactive are those of the source. Rule as the data show it: active = GI50 up to about 1.1 µM and inactive = higher.
# Columns and labels:
# Test in all cases: growth of human tumour cells (NCI), 48 h
# OVCAR-4 = system: OVCAR-4
# KM12 = system: KM12
# IGROV-1 = system: IGROV-1
# SR = system: SR
# HOP-92 = system: HOP-92
# SNB-75 = system: SNB-75
# UACC-257 = system: UACC-257
# CAKI-1 = system: CAKI-1
# BT-549 = system: BT-549
# SF-268 = system: SF-268
# NCI-H460 = system: NCI-H460
# EKVX = system: EKVX
# UACC-62 = system: UACC-62
# OVCAR-5 = system: OVCAR-5
# DU-145 = system: DU-145
# OVCAR-3 = system: OVCAR-3
# HCT-15 = system: HCT-15
# SN12C = system: SN12C
# NCI-H226 = system: NCI-H226
# SW-620 = system: SW-620
compound,measurement,setting,value
C[Si](C)(C)C#CCO[Si](C)(C)C,GI50,OVCAR-4,> 100 µM (inactive)
same,GI50,KM12,> 50.4 µM (inactive)
same,GI50,IGROV-1,16.1 µM (inactive)
same,GI50,SR,34.1 µM (inactive)
same,GI50,HOP-92,18.2 µM (inactive)
same,GI50,SNB-75,47.2 µM (inactive)
same,GI50,UACC-257,> 100 µM (inactive)
same,GI50,CAKI-1,> 78.7 µM (inactive)
same,GI50,BT-549,39.1 µM (inactive)
same,GI50,SF-268,34.2 µM (inactive)
same,GI50,NCI-H460,> 100 µM (inactive)
same,GI50,EKVX,97.9 µM (inactive)
same,GI50,UACC-62,56.5 µM (inactive)
same,GI50,OVCAR-5,> 100 µM (inactive)
same,GI50,DU-145,> 100 µM (inactive)
same,GI50,OVCAR-3,> 94.2 µM (inactive)
same,GI50,HCT-15,> 79.8 µM
same,GI50,SN12C,> 100 µM (inactive)
same,GI50,NCI-H226,> 100 µM (inactive)
same,GI50,SW-620,37.8 µM (inactive)
